# Measurements as given in patent publication US20080085889A1, “Amidomethyl-Substituted 1-(Carboxyalkyl) Cyclopentyl-Carbonylamino-Benzazepine-N-Acetic Acid Compounds, Process and Intermediate Products for Their Preparation and Pharmaceutical Compositions Containing Them” (SOLVAY PHARMACEUTICALS GmbH, priority 2003, published 2008).
# Assays:
# [1] = biological target: T1, soluble, human recombinant NEP (Homo sapiens, UniProt P08473); test: In-vitro investigation of the NEP inhibitory action (fluorescence-quenched Big-ET-1 analogue, HPLC); assay type: biochemical
# T1 construct: soluble, human recombinant NEP; purchased Prof; Crine, University of Montreal, Canada
# How it was run: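 Enzyme preincubated with test substance 15 min at 37° C, then incubated with fluorescence-quenched Mca peptide substrate 60 min at 37° C and stopped by heating to 95° C. Cleaved and intact peptide separated by reversed-phase HPLC; unquenched Mca peak area (ex 328/em 393 nm) gave % inhibition versus no-compound control, duplicates, IC50 derived.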
# [2] = biological target: T2, His6-tagged hSEP ectodomain (Homo sapiens, UniProt Q495T6); test: In vitro investigation of the hSEP-inhibitory action (fluorescence-quenched Big-ET-1 analogue, HPLC); assay type: biochemical
# T2 construct: His6-tagged hSEP ectodomain; His6; purchased Innogenetics, Ghent, Belgium
# T2 sequence (Q495T6 49-779 limits assumed): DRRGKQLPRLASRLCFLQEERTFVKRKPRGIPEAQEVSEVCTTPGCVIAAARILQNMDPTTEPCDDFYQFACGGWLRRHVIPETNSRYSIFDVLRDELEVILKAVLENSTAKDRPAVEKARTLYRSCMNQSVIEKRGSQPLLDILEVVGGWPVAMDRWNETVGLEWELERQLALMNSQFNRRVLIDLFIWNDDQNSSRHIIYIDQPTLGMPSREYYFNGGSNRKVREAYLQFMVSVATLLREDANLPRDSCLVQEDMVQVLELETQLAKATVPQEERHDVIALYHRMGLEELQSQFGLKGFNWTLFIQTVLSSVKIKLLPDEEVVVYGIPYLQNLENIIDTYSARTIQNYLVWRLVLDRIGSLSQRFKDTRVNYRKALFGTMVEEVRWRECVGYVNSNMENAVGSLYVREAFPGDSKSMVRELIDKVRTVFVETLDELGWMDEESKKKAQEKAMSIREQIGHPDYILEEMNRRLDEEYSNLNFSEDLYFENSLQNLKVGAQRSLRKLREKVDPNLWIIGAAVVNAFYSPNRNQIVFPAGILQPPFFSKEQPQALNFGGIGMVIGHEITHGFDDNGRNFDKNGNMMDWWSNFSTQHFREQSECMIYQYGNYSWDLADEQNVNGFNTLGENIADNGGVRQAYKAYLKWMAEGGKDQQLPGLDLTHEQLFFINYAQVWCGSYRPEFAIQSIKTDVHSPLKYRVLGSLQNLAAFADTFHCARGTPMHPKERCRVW
# How it was run: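 Performed as for the NEP assay, with HPLC analysis and 10 nM phosphoramidon as the standard inhibitor. IC50 is the compound concentration blocking 50% of hSEP enzymatic activity.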
# [3] = tested on: formation of ET-1 from Big-ET-1; test: In vivo inhibition of the Big-ET-1-induced blood pressure increase in anaesthetised rats, i.v. single dose; set-up: species or system Rats (Sprague-Dawley); conditions: 5 min before 0.5 nmol/kg Big-ET-1, negative values indicate inhibition
# How it was run: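 Anaesthetised (Rompun/Ketavet) Sprague-Dawley rats got test substance i.v. via jugular vein, as a rule 10 μmol/kg, or vehicle; 5 min later 0.5 nmol/kg Big-ET-1 infused over 1 min. Carotid pressure recorded every 5 min for 30 min; value is % inhibition versus vehicle of maximum Big-ET-1-induced systolic pressure rise, negative values meaning inhibition.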
# [4] = Rattus norvegicus, iv, 10 μmol/kg, read-out: % substance-related inhibition of the maximum Big-ET effect on SAP vs. control
# T1 sequence (P08473 52-750 limits assumed): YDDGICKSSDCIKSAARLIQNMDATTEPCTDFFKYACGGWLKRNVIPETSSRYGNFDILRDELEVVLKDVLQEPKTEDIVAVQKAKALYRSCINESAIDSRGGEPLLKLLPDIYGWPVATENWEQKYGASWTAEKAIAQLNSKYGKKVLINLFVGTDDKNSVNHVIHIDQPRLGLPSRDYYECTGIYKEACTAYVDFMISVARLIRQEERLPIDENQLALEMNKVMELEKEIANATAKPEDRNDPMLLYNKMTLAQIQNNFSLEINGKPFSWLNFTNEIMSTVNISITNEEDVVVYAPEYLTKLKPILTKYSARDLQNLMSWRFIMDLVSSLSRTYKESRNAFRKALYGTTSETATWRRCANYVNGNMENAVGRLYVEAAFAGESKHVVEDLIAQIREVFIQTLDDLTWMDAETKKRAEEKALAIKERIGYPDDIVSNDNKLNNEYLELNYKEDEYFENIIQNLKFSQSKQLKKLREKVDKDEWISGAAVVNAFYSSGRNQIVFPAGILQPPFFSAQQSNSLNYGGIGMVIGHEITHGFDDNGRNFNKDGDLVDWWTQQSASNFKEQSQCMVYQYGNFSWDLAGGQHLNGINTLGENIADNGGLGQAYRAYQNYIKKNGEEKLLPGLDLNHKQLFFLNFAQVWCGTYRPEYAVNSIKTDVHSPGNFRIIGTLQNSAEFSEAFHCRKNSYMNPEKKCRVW
molecule,measurement,setting,value
"CN(C)CCCN(C)C(=O)CC(CC1(C(=O)NC2CCc3ccccc3N(CC(=O)O)C2=O)CCCC1)C(=O)O (stereo not shown) [Example 64, 2-[(1-{[1-(carboxymethyl)-2-oxo-2,3,4,5-tetrahydro-1H-1-benzazepin-3-yl]carbamoyl}cyclopentyl)methyl]-4-{[3-(dimethylamino)propyl](methyl)amino}-4-oxobutanoic acid]",IC50,[1],9 nM
same,IC50,[2],5 nM
same,change in vivo at 10 µmol/kg,[3]; [4],-108%
"CCN(CCCCN)C(=O)CC(CC1(C(=O)NC2CCc3ccccc3N(CC(=O)O)C2=O)CCCC1)C(=O)O [Example 81, (2″rel1″)-4-[(4-aminobutyl)(ethyl)amino]-2-{[1-({[(3S)-1-(carboxymethyl)-2-oxo-2,3,4,5-tetrahydro-1H-1-benzazepin-3-yl]amino}carbonyl)cyclopentyl]methyl}-4-oxobutanoic acid]",IC50,[1],4 nM
same,IC50,[2],2 nM
same,change in vivo at 0.3 µmol/kg,"[3]; Rattus norvegicus, iv, 0.3 μmol/kg, read-out: % substance-related inhibition of the maximum Big-ET effect on SAP vs. control",-73%
"{(3S)-3-[({1-[(2″rel1″)-2-ethoxycarbonyl)-4-(isopropylamino)-4-oxobutyl]cyclopentyl}-carbonyl)amino]-2-oxo-2,3,4,5-tetrahydro-1H-1-benzazepin-1-yl}acetic acid [Example 4]",% substance-related inhibition of the maximum Big-ET effect on SAP vs. control,[3]; 10 μmol/kg,−95%
"CC(C)NC(=O)CC(CC1(C(=O)N[C@H]2CCc3ccccc3N(CC(=O)O)C2=O)CCCC1)C(=O)O (stereo in doubt) [Example 3, (2″rel1″)-2-{[(3S)-1-({[1-(carboxymethyl)-2-oxo-2,3,4,5-tetrahydro-1H-1-benzazepin-3-yl]amino}-carbonyl)cyclopentyl]methyl}-4-(isopropylamino)-4-oxobutyric acid]",IC50,[1],17.9 nM
same,IC50,[2],7.8 nM
same,change in vivo at 10 µmol/kg,[3]; [4],-94%
